# Legend:
# [1] = Change of plasma concentration of drug in rat (half life of the disappearance after intravenous administration); type: in vivo; conditions: Jcl-SD male rats, 0.5 to 2 mg/kg, plasma concentration of unchanged compound
# Procedure: Experiment 3 Change of Plasma Concentration of Drug in Rat
# Compound (0.5 to 2 mg/kg) was administered intravenously to Jcl-SD male rats. The concentration of the unchanged compound was measured at 2, 5, 15, 30, 60, 120, and 240 min after the administration by the use of HPLC (determination limit; 0.05 μg/ml) and LC/MS/MS (determination limit; 0.001 μg/ml) and the half life of the disappearance was calculated. [drawing 387]
# PGD2 receptor [2] = molecular target: T1, PGD2 receptor (Homo sapiens, UniProt Q13258); experiment: Antagonistic activity against PGD2 receptor using human platelet (inhibition of PGD2-induced cAMP increase); type: cell-based; conditions: 0.1 μM PGD2, cAMP by radioimmunoassay, read-out: Inhibitory activity for the increase of cAMP caused by PGD2 in human platelet IC50
# T1 construct: Peripheral blood was collected from a healthy volunteer; endogenous in cells; host or cells: washed human platelets from peripheral blood of a healthy volunteer
# T1 sequence (Q13258 1-359): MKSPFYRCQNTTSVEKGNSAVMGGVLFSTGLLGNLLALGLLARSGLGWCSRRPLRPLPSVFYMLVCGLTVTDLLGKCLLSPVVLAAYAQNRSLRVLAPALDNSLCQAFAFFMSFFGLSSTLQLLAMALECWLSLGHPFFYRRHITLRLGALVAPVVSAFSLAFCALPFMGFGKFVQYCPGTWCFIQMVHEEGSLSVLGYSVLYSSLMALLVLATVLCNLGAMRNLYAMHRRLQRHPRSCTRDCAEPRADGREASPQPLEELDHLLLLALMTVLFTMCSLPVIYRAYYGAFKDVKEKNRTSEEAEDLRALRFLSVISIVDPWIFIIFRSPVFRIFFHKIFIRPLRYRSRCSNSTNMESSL
# Procedure: Experiment 2 Evaluation of Antagonistic Activity Against PGD2 Receptor Using Human Platelet
# Peripheral blood was collected from a healthy volunteer using a syringe in which 1/9 volume of a citric acid/dextrose solution was previously added. The sample was subjected to centrifugation at 1200 rpm for 10 min to obtain the supernatant (PRP: platelet rich plasma). The resultant PRP was washed 3 times with a washing buffer and the number of platelets was counted with a micro cell counter. A suspension adjusted to contain the platelets at a final concentration of 5×10^8/ml was warmed at 37° C., then subjected to the pre-treatment with 3-isobutyl-1-methylxanthine (0.5 mM) for 5 min. To the suspension was added a test compound diluted at various concentration, and 10 minutes later, 0.1 μM PGD2 was added to induce the reaction 2 minutes later, hydrochloric acid was added to terminate the reaction. The platelet was destroyed with an ultrasonic homogenizer. After centrifugation, the cAMP in the supernatant was determined by radioimmunoassay.
# PGD2 receptor [3] = molecular target: T1, PGD2 receptor; experiment: Binding activity to PGD2 receptor (human platelet membrane fraction, [3H]PGD2); conditions: 5 nM [3H]PGD2, 4° C., 90 min
# Procedure: Experiment 1 Binding Activity to PGD2 Receptor
# (1) Preparation of Human Platelet Membrane Fraction
# Blood was collected using a plastic syringe containing 3.8% sodium citrate from the vein of healthy volunteers (adult male and female), then put into a plastic test tube and mixed by slow-reversion. The sample was then centrifuged at 1800 rpm, for 10 min at room temperature, and the supernatant containing PRP (platelet-rich plasma) was collected. The PRP was re-centrifuged at 2300 rpm, for 22 min at room temperature to obtain platelets. The platelets were homogenized using a homogenizer (Ultra-Turrax) followed by centrifugation 3 times at 20,000 rpm, 10 min at 4° C. to obtain a platelet membrane fraction. After protein determination, the membrane fraction was adjusted to 2 mg/ml and preserved in a refrigerator at −80° C. until using for the binding test.
# (2) Binding to PGD2 Receptor
# To a binding-reaction solution (50 mM Tris/HCl, pH 7.4, 5 mM MgCl2) (0.2 ml) were added the human platelet membrane fraction (0.1 mg) and 5 nM [^3H]PGD2 (115 Ci/mmol), and the mixture was reacted at 4° C. for 90 min. After the reaction, the mixture was filtered through a glass fiber filter paper and washed several times with cooled physiological saline, then the radioactivity retained on the filter paper was measured. The specific-binding ratio was calculated by subtracting the non-specific binding ratio which is the radioactivity similarly measured in the presence of 10 μM PGD2 from the total binding. The inhibitory activity of each compound was expressed as the concentration required for 50% inhibition (IC50), which was determined by depicting a substitution curve by plotting the binding ratio (%) in the presence of each compound, where the binding ratio in the absence of a test compound is 100%.
half-life [1] [min],IC50 (PGD2 receptor [2]) [nM],IC50 (PGD2 receptor [3]) [nM],melting point [°C],SMILES
21.6,19,,,CC1(C)[C@H]2C[C@H](CCCC/C=C/C(=O)O)[C@@H](NC(=O)c3ccsc3)[C@@H]1C2 [IIa-4]
,15,,,CC1(C)[C@H]2C[C@H](CCCC/C=C/C(=O)O)[C@@H](NC(=O)c3csc4ccccc34)[C@@H]1C2 [IIa-17]
,3.7,,,CC1(C)[C@H]2C[C@H](CCCC/C=C/C(=O)O)[C@@H](NC(=O)c3csc4cc(O)ccc34)[C@@H]1C2 [IIa-22]
,2.5,33,,CC1(C)[C@H]2C[C@H](CCCC/C=C/C(=O)O)[C@@H](NC(=O)c3csc4ccc(O)cc34)[C@@H]1C2 [IIa-23]
,16,,,CC1(C)[C@H]2C[C@H](CCCC/C=C/C(=O)O)[C@@H](NC(=O)c3csc4ccc(F)cc34)[C@@H]1C2 [IIa-28]
34.6,14,,141 to 142,CC1(C)[C@H]2C[C@H](CCCC/C=C/C(=O)O)[C@@H](NC(=O)c3cccc4ccsc34)[C@@H]1C2 [IIa-34]
16.7,3.7,,159 to 160,CC1(C)[C@H]2C[C@H](CCCC/C=C/C(=O)O)[C@@H](NC(=O)c3coc4ccc(O)cc34)[C@@H]1C2 [IIa-52]
,15,,,CC1(C)[C@H]2C[C@H](CCCC/C=C/C(=O)O)[C@@H](NC(=O)c3coc4cc(F)ccc34)[C@@H]1C2 [IIa-54]
,17,,,CC1(C)[C@H]2C[C@H](CCCC/C=C/C(=O)O)[C@@H](NC(=O)c3cc4ccsc4[nH]3)[C@@H]1C2 [IIa-66]
44.3,18,,,CC1(C)[C@H]2C[C@H](CCCCOCC(=O)O)[C@@H](NC(=O)c3ccsc3)[C@@H]1C2 [IIc-4]
,5.4,,125 to 126,CC1(C)[C@H]2C[C@H](CCCCOCC(=O)O)[C@@H](NC(=O)c3csc4ccccc34)[C@@H]1C2 [IIc-17]
,15,,87 to 90,Cc1ccc2scc(C(=O)N[C@@H]3[C@@H](CCCCOCC(=O)O)C[C@H]4C[C@@H]3C4(C)C)c2c1 [IIc-20]
,4.6,,,CC1(C)[C@H]2C[C@H](CCCCOCC(=O)O)[C@@H](NC(=O)c3csc4cc(O)ccc34)[C@@H]1C2 [IIc-22]
,4.9,9.5,,CC1(C)[C@H]2C[C@H](CCCCOCC(=O)O)[C@@H](NC(=O)c3csc4ccc(O)cc34)[C@@H]1C2 [IIc-23]
,13,,,CC1(C)[C@H]2C[C@H](CCCCOCC(=O)O)[C@@H](NC(=O)c3csc4cccc(O)c34)[C@@H]1C2 [IIc-24]
,13,,144 to 146,CC1(C)[C@H]2C[C@H](CCCCOCC(=O)O)[C@@H](NC(=O)c3csc4ccc(F)cc34)[C@@H]1C2 [IIc-28]
66.7,11,,95 to 96,CC1(C)[C@H]2C[C@H](CCCCOCC(=O)O)[C@@H](NC(=O)c3cccc4ccsc34)[C@@H]1C2 [IIc-34]
23.4,8.2,3.5,,CC1(C)[C@H]2C[C@H](CCCCOCC(=O)O)[C@@H](NC(=O)c3coc4ccc(O)cc34)[C@@H]1C2 [IIc-52]
,8,,,Cc1cc(O)cc2c(C(=O)N[C@@H]3[C@@H](CCCCOCC(=O)O)C[C@H]4C[C@@H]3C4(C)C)coc12 [IIc-81]
,8,,,CC1(C)[C@H]2C[C@H](CCCCOCC(=O)O)[C@@H](NC(=O)c3csc4ccc(NC(N)=O)cc34)[C@@H]1C2 [IIc-86]

half-life [1] [min],IC50 (PGD2 receptor [2]) [nM],IC50 (PGD2 receptor [3]) [nM],melting point [°C],SMILES
,17,,,CC1(C)[C@H]2C[C@H](CCCCOCC(=O)O)[C@@H](NC(=O)c3csc4ccc(CNS(C)(=O)=O)cc34)[C@@H]1C2 [IIc-96]
,11,,,CC1(C)[C@H]2C[C@H](CCCCOCC(=O)O)[C@@H](NC(=O)c3csc4ccc(CNC(N)=O)cc34)[C@@H]1C2 [IIc-97]
,6,,164 to 166,CC1(C)[C@H]2C[C@H](CCCCOCC(=O)O)[C@@H](NC(=O)c3csc4ccc(C(N)=O)cc34)[C@@H]1C2 [IIc-99]
,5,,,CC1(C)[C@H]2C[C@H](CCCCOCC(=O)O)[C@@H](NC(=O)c3csc4cc(F)c(O)cc34)[C@@H]1C2 [IIc-128]
,18,,,COc1cc2c(C(=O)N[C@@H]3[C@@H](CCCCOCC(=O)O)C[C@H]4C[C@@H]3C4(C)C)csc2cc1F [IIc-129]
,3,,,CC1(C)[C@H]2C[C@H](CCCCOCC(=O)O)[C@@H](NC(=O)c3coc4ccc(NC(N)=O)cc34)[C@@H]1C2 [IIc-135]
,4.8,,,CC1(C)[C@H]2C[C@H](CCCCSCC(=O)O)[C@@H](NC(=O)c3csc4cc(O)ccc34)[C@@H]1C2 [IIe-22]
,5.7,,,CC1(C)[C@H]2C[C@H](CCCCSCC(=O)O)[C@@H](NC(=O)c3csc4cccc(O)c34)[C@@H]1C2 [IIe-24]
,17,,197 to 199,CC1(C)[C@H]2C[C@H](CCCCSCC(=O)O)[C@@H](NC(=O)c3csc4ccc(F)cc34)[C@@H]1C2 [IIe-28]
,19,,143 to 144,CC1(C)[C@H]2C[C@H](CCCCSCC(=O)O)[C@@H](NC(=O)c3cccc4ccsc34)[C@@H]1C2 [IIe-34]
,20,,,CCOC(=O)Nc1ccc2scc(C(=O)N[C@@H]3[C@@H](CCCCC(=O)O)C[C@H]4C[C@@H]3C4(C)C)c2c1 [IIf-84]
,11,,155 to 157,O=C(O)/C=C/CCCC[C@H]1[C@@H]2CC[C@@H](C2)[C@@H]1NC(=O)c1csc2ccccc12 [Ia-17]
,17,,129 to 131,Cc1ccc2scc(C(=O)N[C@H]3[C@H]4CC[C@H](C4)[C@@H]3CCCC/C=C/C(=O)O)c2c1 [Ia-20]
,18,,,O=C(O)/C=C/CCCC[C@H]1[C@@H]2CC[C@@H](C2)[C@@H]1NC(=O)c1cc2sccc2[nH]1 [Ia-65]
,10,,76 to 79,O=C(O)COCCCC[C@H]1[C@@H]2CC[C@@H](C2)[C@@H]1NC(=O)c1csc2cc(O)ccc12 [Ic-22]
,10,,149 to 151,O=C(O)COCCCC[C@H]1[C@@H]2CC[C@@H](C2)[C@@H]1NC(=O)c1csc2ccc(O)cc12 [Ic-23]
,10,74,,O=C(O)COCCCC[C@H]1[C@@H]2CC[C@@H](C2)[C@@H]1NC(=O)c1coc2ccc(O)cc12 [Ic-52]
8,,,,"CC1(C)[C@H]2C[C@H](C/C=C\CCCC(=O)O)[C@@H](NC(=O)c3ccsc3)[C@@H]1C2 [Reference compound 1, reference compound]"
17,,,,"CC1(C)[C@H]2C[C@H](C/C=C\CCCC(=O)O)[C@@H](NC(=O)c3cccc4ccsc34)[C@@H]1C2 [Reference compound 2, reference compound]"
8.7,,,,CC1(C)[C@H]2C[C@H](C/C=C\CCCC(=O)O)[C@@H](NC(=O)c3coc4ccc(O)cc34)[C@@H]1C2 [Reference compound 3]
